≈ marks a conversion by molar mass, not a printed value. Like-named read-outs stand apart in the source and are kept apart here.
Tests used:
[1] = tested on: methicillin-sensitive Staphylococcus aureus; experiment: MIC by broth micro-dilution (CLSI), methicillin-sensitive S. aureus; format: cell-based; details: MSSA S. aureus ATCC29213
[2] = tested on: carbapenem sensitive Escherichia coli; experiment: MIC by broth micro-dilution (CLSI), carbapenem sensitive E. coli; format: cell-based
[3] = tested on: carbapenemase producing K. pneumoniae; experiment: MIC by broth micro-dilution (CLSI), carbapenemase producing K. pneumoniae; format: cell-based, Klebsiella pneumoniae
[4] = tested on: carbapenem sensitive Pseudomonas aeruginosa; experiment: MIC by broth micro-dilution (CLSI), carbapenem sensitive P. aeruginosa; format: cell-based
[5] = Staphylococcus aureus, ATCC 29213 / MSSA, read-out: MIC
[6] = Escherichia coli, ATCC25922, ESBL −ve E. coli ATCC25922, read-out: MIC
[7] = Klebsiella pneumoniae, ATCCBAA1705, KPC-2 K. pneumoniae ATCC BAA-1705, read-out: MIC
[8] = Pseudomonas aeruginosa, ATCC27853, Meropenem susceptible P. aeruginosa ATCC27853, read-out: MIC
[9] = KPC-2 K. pneumoniae ATCC BAA-1705
[10] = Meropenem susceptible P. aeruginosa ATCC27853

C[C@@H](NC(=O)Cn1cnnn1)[C@H]1C(=O)N2C(C(=O)O)=C(S[C@@H]3CN[C@H](C(=O)N4CCC5CNCCC54)C3)[C@H](C)[C@H]12 (single isomer, unassigned) [Example 438]
MIC [1, 5]: 2 µg/mL (≈ 3.49 µM)
MIC [2, 6]: 0.25 µg/mL (≈ 0.436 µM)
MIC [3, 7]: 1 µg/mL (≈ 1.74 µM)
MIC [4, 8]: 2 µg/mL (≈ 3.49 µM)

C[C@@H](NC(=O)Cn1cnnn1)[C@H]1C(=O)N2C(C(=O)O)=C(S[C@@H]3CN[C@H](C(=O)N4CC[C@H](NC(=N)N)C4)C3)[C@H](C)[C@H]12 [Example 582, (4R,5S,6R)-6-((R)-1-(2-(1H-tetrazol-1-yl)acetamido)-ethyl)-3-((3S,5S)-5-((S)-3-guanidino-pyrrolidine-1-carbonyl)pyrrolidin-3-ylthio)-4-methyl-7-oxo-1-azabicyclo[3.2.0]hept-ene-2-carboxylic acid]
MIC [1, 5]: 2 µg/mL (≈ 3.47 µM)
MIC [2, 6]: 0.25 µg/mL (≈ 0.434 µM)
MIC [3, 7]: 2 µg/mL (≈ 3.47 µM)
MIC [4, 8]: 0.5 µg/mL (≈ 0.869 µM)

C[C@@H](NC(=O)Cn1cnnn1)[C@H]1C(=O)N2C(C(=O)O)=C(S[C@@H]3CN[C@H](C(=O)N4CCC5CNCC5(C(=O)O)C4)C3)[C@H](C)[C@H]12 (stereo partly drawn) [Example 563, 5-((2S,4S)-4-((4R,5S,6R)-6-((R)-1-(2-(1H-tetrazol-1-yl)acetamido)ethyl)-2-carboxy-4-methyl-7-oxo-1-azabicyclo[3.2.0]hept-2-en-3-yl-thio)pyrrolidine-2-carbonyl)octahydro-1H-pyrrolo[3,4-c]pyridine-3a-carboxylic acid]
MIC [1]: 16 µg/mL (≈ 25.9 µM)
MIC ([2]; ESBL −ve E. coli ATCC25922): 0.25 µg/mL (≈ 0.405 µM)
MIC [3, 9]: 2 µg/mL (≈ 3.24 µM)
MIC [4, 10]: 2 µg/mL (≈ 3.24 µM)

C[C@@H](NC(=O)c1ccccc1-n1cnnn1)[C@H]1C(=O)N2C(C(=O)O)=C(S[C@@H]3CN[C@H](C(=O)N(C)C)C3)[C@H](C)[C@H]12 [Example 373]
MIC [1, 5]: 4 µg/mL (≈ 7.21 µM)
MIC [2, 6]: 32 µg/mL (≈ 57.7 µM)
MIC [3, 7]: > 128 µg/mL
MIC [4, 8]: > 128 µg/mL

C[C@@H](NC(=O)Cn1cnnn1)[C@H]1C(=O)N2C(C(=O)O)=C(S[C@@H]3CN[C@H](C(=O)N4CCC5NCCCC54)C3)[C@H](C)[C@H]12 (single isomer, unassigned) [Example 468]
MIC [1, 5]: 4 µg/mL (≈ 6.97 µM)
MIC [2, 6]: 0.5 µg/mL (≈ 0.872 µM)
MIC [3, 7]: 2 µg/mL (≈ 3.49 µM)
MIC [4, 8]: 8 µg/mL (≈ 13.9 µM)

CNCC(=O)N[C@H](C)[C@H]1C(=O)N2C(C(=O)O)=C(S[C@@H]3CN[C@H](CNC(=O)[C@@H]4CCC(N)C4)C3)[C@H](C)[C@H]12 (stereo partly drawn) [Example 262]
MIC [1, 5]: 32 µg/mL (≈ 61.2 µM)
MIC [2, 6]: 4 µg/mL (≈ 7.65 µM)
MIC [3, 7]: 16 µg/mL (≈ 30.6 µM)
MIC [4, 8]: 64 µg/mL (≈ 122 µM)

C[C@@H](NC(=O)Cn1cnnn1)[C@H]1C(=O)N2C(C(=O)O)=C(SC3CNC3)[C@H](C)[C@H]12 [Example 407, (4R,5S,6R)-6-((R)-1-(2-(1H-tetrazol-1-yl)acetamido)ethyl)-3-(azetidin-3-ylthio)-4-methyl-7-oxo-1-azabicyclo[3.2.0]hept-2-ene-2-carboxylic acid]
MIC [1, 5]: 2 µg/mL (≈ 4.91 µM)
MIC [2, 6]: 0.5 µg/mL (≈ 1.23 µM)
MIC [3, 7]: 1 µg/mL (≈ 2.45 µM)
MIC [4, 8]: 8 µg/mL (≈ 19.6 µM)

C[C@@H](NC(=O)Cn1cnnn1)[C@H]1C(=O)N2C(C(=O)O)=C(S[C@@H]3CN[C@H](C(=O)N4CCC5CN(C(=N)N)CCC54)C3)[C@H](C)[C@H]12 (single isomer, unassigned) [Example 559]
MIC [1, 5]: 1 µg/mL (≈ 1.62 µM)
MIC [2, 6]: 0.25 µg/mL (≈ 0.406 µM)
MIC [3, 7]: 1 µg/mL (≈ 1.62 µM)
MIC [4, 10]: 4 µg/mL (≈ 6.5 µM)

CNCC(=O)N[C@H](C)[C@H]1C(=O)N2C(C(=O)O)=C(S[C@@H]3CN[C@H](CNC(=O)[C@@H]4CSCN4)C3)[C@H](C)[C@H]12 [Example 291]
MIC [1, 5]: 32 µg/mL (≈ 60.8 µM)
MIC [2, 6]: 2 µg/mL (≈ 3.8 µM)
MIC [3, 7]: 2 µg/mL (≈ 3.8 µM)
MIC [4, 8]: 8 µg/mL (≈ 15.2 µM)

C[C@@H](NC(=O)Cn1nnnc1C(C)(C)C)[C@H]1C(=O)N2C(C(=O)O)=C(S[C@@H]3CN[C@H](C(=O)N4CC[C@@H](N)C4)C3)[C@H](C)[C@H]12 [Example 355, (4R,5S,6R)-3-((3S,5S)-5-((R)-3-aminopyrrolidine-1-carbonyl)pyrrolidin-3-ylthio)-6-((R)-1-(2-(5-tert-hutyl-1H-tetrazol-1-yl)acetamido)ethyl)-4-methyl-7-oxo-1-azabicyclo[3.2.0]hept-2-ene-2-carboxylic acid]
MIC [1, 5]: 4 µg/mL (≈ 6.78 µM)
MIC [2, 6]: 1 µg/mL (≈ 1.7 µM)
MIC [3, 7]: 16 µg/mL (≈ 27.1 µM)
MIC [4, 8]: 128 µg/mL (≈ 217 µM)

C[C@@H](NC(=O)Cn1cnnn1)[C@H]1C(=O)N2C(C(=O)O)=C(S[C@@H]3CN[C@H](C(=O)N4C[C@H](N)[C@@H](O)C4)C3)[C@H](C)[C@H]12 [Example 414, (4R,5S,6R)-6-((R)-1-(2-(1H-tetrazol-1-yl)acetamido)ethyl)-3-((3S,5S)-5-((3S,4S)-3-amino-4-hydroxypyrrolidine-1-carbonyl)pyrrolidin-3-ylthio)-4-methyl-7-oxo-1-azabicyclo[3.2.0]hept-2-ene-2-carboxylic acid]
MIC [1, 5]: 4 µg/mL (≈ 7.28 µM)
MIC [2, 6]: 0.5 µg/mL (≈ 0.91 µM)
MIC [3, 7]: 2 µg/mL (≈ 3.64 µM)
MIC [4, 8]: 4 µg/mL (≈ 7.28 µM)

CNCC(=O)N[C@H](C)[C@H]1C(=O)N2C(C(=O)O)=C(S[C@@H]3CN[C@H](C(=O)N4C[C@@H](N)C[C@H]4C)C3)[C@H](C)[C@H]12 [Example 287]
MIC [1, 5]: 128 µg/mL (≈ 252 µM)
MIC [2, 6]: 4 µg/mL (≈ 7.86 µM)
MIC [3, 7]: 8 µg/mL (≈ 15.7 µM)
MIC [4, 8]: 16 µg/mL (≈ 31.5 µM)

C[C@@H](NC(=O)Cn1nnnc1N)[C@H]1C(=O)N2C(C(=O)O)=C(S[C@@H]3CN[C@H](C(=O)N(C)C)C3)[C@H](C)[C@H]12 [Example 392, (4R,5S,6R)-6-((R)-1-(2-(5-amino-1H-tetrazol-1-yl)acetamido)ethyl)-3-((3S,5S)-5-(dimethylcarbamoyl)pyrrolidin-3-ylthio)-4-methyl-7-oxo-1-azabicyclo[3.2.0]hept-2-ene-2-carboxylic acid]
MIC [1, 5]: 4 µg/mL (≈ 7.88 µM)
MIC [2, 6]: 1 µg/mL (≈ 1.97 µM)
MIC [3, 7]: 4 µg/mL (≈ 7.88 µM)
MIC [4, 8]: 64 µg/mL (≈ 126 µM)

C[C@@H](NC(=O)Cn1cnnn1)[C@H]1C(=O)N2C(C(=O)O)=C(S[C@@H]3CN[C@H](C(=O)N4CCC5(CC4)CNC5)C3)[C@H](C)[C@H]12 [Example 368, (4R,5S,6R)-6-((R)-1-(2-(1H-tetrazol-1-yl)acetamido)ethyl)-3-((3S,5S)-5-(2,7-diazaspiro[3.5]nonane-7-carbonyl)pyrrolidin-3-ylthio)-4-methyl-7-oxo-1-azabicyclo[3.2.0]hept-2-ene-2-carboxylic acid]
MIC [1, 5]: 2 µg/mL (≈ 3.49 µM)
MIC [2, 6]: 0.25 µg/mL (≈ 0.436 µM)
MIC [3, 7]: 2 µg/mL (≈ 3.49 µM)
MIC [4, 8]: 1 µg/mL (≈ 1.74 µM)

C[C@@H](NC(=O)Cn1cnnn1)[C@H]1C(=O)N2C(C(=O)O)=C(S[C@@H]3CN[C@H](C(=O)N4CCC5CNCC5(CO)C4)C3)[C@H](C)[C@H]12 (single isomer, unassigned) [Example 537]
MIC [1]: 4 µg/mL (≈ 6.63 µM)
MIC ([2]; ESBL −ve E. coli ATCC25922): 0.25 µg/mL (≈ 0.414 µM)
MIC [3, 9]: 2 µg/mL (≈ 3.31 µM)
MIC [4, 10]: 2 µg/mL (≈ 3.31 µM)

C[C@@H](NC(=O)Cn1cnnn1)[C@H]1C(=O)N2C(C(=O)O)=C(S[C@@H]3CN[C@H](C(=O)N4CC[C@@H](NC(=O)CCN)C4)C3)[C@H](C)[C@H]12 [Example 492, (4R,5S,6R)-6-((R)-1-(2-(1H-tetrazol-1-yl)acetamido)ethyl)-3-((3S,5S)-5-((R)-3-(3-aminopropanamido)pyrrolidine-1-carbonyl)pyrrolidin-3-ylthio)-4-methyl-7-oxo-1-azabicyclo[3.2.0]hept-2-ene-2-carboxylic acid]
MIC [1, 5]: 4 µg/mL (≈ 6.61 µM)
MIC [2, 6]: 0.5 µg/mL (≈ 0.827 µM)
MIC [3, 7]: 2 µg/mL (≈ 3.31 µM)
MIC [4, 8]: 2 µg/mL (≈ 3.31 µM)

C[C@@H](NC(=O)Cc1nnc(C(F)(F)F)o1)[C@H]1C(=O)N2C(C(=O)O)=C(S[C@@H]3CN[C@H](C(=O)N4CC[C@@H](N)C4)C3)[C@H](C)[C@H]12 [Example 394, (4R,5S,6R)-3-((3S,5S)-5-((R)-3-aminopyrrolidine-1-carbonyl)pyrrolidin-3-ylthio)-4-methyl-7-oxo-6-((R)-1-(2-(5-(trifluoromethyl)-1,3,4-oxadiazol-2-yl)acetamido)ethyl)-1-azabicyclo[3.2.0]hept-2-ene-2-carboxylic acid]
MIC [1, 5]: 8 µg/mL (≈ 13.3 µM)
MIC [2, 6]: 2 µg/mL (≈ 3.32 µM)
MIC [3, 7]: 32 µg/mL (≈ 53.2 µM)
MIC [4, 8]: 128 µg/mL (≈ 213 µM)

C[C@@H](NC(=O)Cn1cnnn1)[C@H]1C(=O)N2C(C(=O)O)=C(S[C@@H]3CN[C@H](C(=O)N4C[C@@H]5NC(=N)N[C@@H]5C4)C3)[C@H](C)[C@H]12 [Example 580, (4R,5S,6R)-6-((R)-1-(2-(1H-tetrazol-1-yl)acetamido)ethyl)-3-((3S,5S)-5-((3aR,6aS)-2-iminooctahydropyrrolo[3,4-d]imidazole-5-carbonyl)pyrrolidin-3-ylthio)-methyl-7-oxo-1-azabicyclo[3.2.0]hept-2-ene-2-carboxylic acid]
MIC [1, 5]: 2 µg/mL (≈ 3.49 µM)
MIC [2, 6]: 0.25 µg/mL (≈ 0.436 µM)
MIC [3, 7]: 1 µg/mL (≈ 1.74 µM)
MIC [4, 8]: 0.5 µg/mL (≈ 0.872 µM)

CNCC(=O)N[C@H](C)[C@H]1C(=O)N2C(C(=O)O)=C(S[C@@H]3CN[C@H](C(=O)NC4CCOCC4)C3)[C@H](C)[C@H]12 [Example 279]
MIC [1, 5]: > 128 µg/mL
MIC [2, 6]: 4 µg/mL (≈ 7.85 µM)
MIC [3, 7]: 16 µg/mL (≈ 31.4 µM)
MIC [4, 8]: > 128 µg/mL

C[C@@H](NC(=O)Cn1cnnn1)[C@H]1C(=O)N2C(C(=O)O)=C(S[C@@H]3CN[C@H](C(=O)N4CCN(C(=O)[C@@H](N)CO)CC4)C3)[C@H](C)[C@H]12 [Example 420, (4R,5S,6R)-6-((R)-1-(2-(1H-tetrazol-1-yl)acetamido)ethyl)-3-((3S,5S)-5-(4-((S)-2-amino-3-hydroxypropanoyl)piperazine-1-carbonyl)pyrrolidin-3-ylthio)-4-methyl-7-oxo-1-azabicyclo[3.2.0]hept-2-ene-2-carboxylic acid]
MIC [1, 5]: 4 µg/mL (≈ 6.44 µM)
MIC [2, 6]: 0.25 µg/mL (≈ 0.403 µM)
MIC [3, 7]: 1 µg/mL (≈ 1.61 µM)
MIC [4, 8]: 2 µg/mL (≈ 3.22 µM)

C[C@@H](NC(=O)CNC(=N)N)[C@H]1C(=O)N2C(C(=O)O)=C(S[C@@H]3CN[C@H](C(=O)N(C)C)C3)[C@H](C)[C@H]12 [Example 241]
MIC [1, 5]: 16 µg/mL (≈ 33.2 µM)
MIC [2, 6]: 2 µg/mL (≈ 4.15 µM)
MIC [3, 7]: 2 µg/mL (≈ 4.15 µM)
MIC [4, 8]: 32 µg/mL (≈ 66.4 µM)
